pIC50: −log10 of the molar value.
These compounds were tested against T1, Steryl-sulfatase (Homo sapiens, UniProt P08842) (assay: ChEBML_68022).
T1 sequence (P08842 whole entry): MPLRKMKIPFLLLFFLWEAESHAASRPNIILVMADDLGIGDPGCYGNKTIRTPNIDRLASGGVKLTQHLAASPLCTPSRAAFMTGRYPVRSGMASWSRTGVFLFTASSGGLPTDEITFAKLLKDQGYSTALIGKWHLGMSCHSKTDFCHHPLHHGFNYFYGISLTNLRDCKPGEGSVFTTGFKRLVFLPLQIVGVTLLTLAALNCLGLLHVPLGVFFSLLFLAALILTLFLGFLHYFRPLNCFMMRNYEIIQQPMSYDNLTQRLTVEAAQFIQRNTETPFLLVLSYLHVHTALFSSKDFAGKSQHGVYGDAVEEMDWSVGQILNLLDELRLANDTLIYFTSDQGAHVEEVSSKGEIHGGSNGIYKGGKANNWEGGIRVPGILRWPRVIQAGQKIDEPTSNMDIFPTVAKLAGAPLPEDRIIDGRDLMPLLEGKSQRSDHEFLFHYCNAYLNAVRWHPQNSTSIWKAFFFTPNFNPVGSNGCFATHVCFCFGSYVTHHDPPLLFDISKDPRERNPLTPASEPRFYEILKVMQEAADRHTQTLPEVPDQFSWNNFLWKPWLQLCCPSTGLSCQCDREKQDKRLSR
From the text: In vitro inhibition of estrone sulfatase.

Structure (SMILES) | pIC50
NS(=O)(=O)OCC(Cl)(Cl)Cl [Sulfamic acid 2,2,2-trichloro-ethyl ester] | 3.12
NS(=O)(=O)Oc1ccccc1 | < 2.00
NS(=O)(=O)Oc1ccc(I)cc1 [Sulfamic acid 4-iodo-phenyl ester] | 3.25
Cc1cccc(OS(N)(=O)=O)c1 [Sulfamic acid m-tolyl ester] | 2.68
NS(=O)(=O)Oc1cccc(I)c1 [Sulfamic acid 3-iodo-phenyl ester] | 3.92
Cc1ccc(OS(N)(=O)=O)cc1 [Sulfamic acid p-tolyl ester] | < 2.00
NS(=O)(=O)Oc1ccc(F)cc1 [4-fluorophenyl sulfamate] | 3.27
